“Also recorded” adds a separate entry of the source.
Legend:
[1] = test system: Luciferase-expressing human pancreatic cancer cells PANC-1; assay: Therapeutic effect on peritoneal dissemination of pancreatic cancer (IVIS luciferase activity, survival); type: in vivo, BALB/c nu/nu mice; conditions: PANC-1-luc model, lipoplex i.p. 20 μg TS-shRNA/mouse, Paclitaxel i.p. 10 mg/kg, days 8, 11, 14, 17, IVIS days 7-25
Procedure: The therapeutic effects of the TS-shRNA-carrying lipoplex (i.e., novel preparation (2)) prepared in the same manner as in Example 1 on peritoneal dissemination of pancreatic cancer were evaluated.
Luciferase-expressing human pancreatic cancer cells PANC-1 (PANC-1-luc, Pharmaron) were cultured and transplanted intraperitoneally into BALB/c nu/nu mice (6- to 8-week-old, female, Beijing HFK Bio-Technology Co., Ltd.) at 1.0×10^7 cells/mouse to prepare mouse models for peritoneal dissemination of PANC-1-luc.
In Example 7, the lipoplex (novel preparation (2)), Paclitaxel (Taxol, Pharmaron), or the lipoplex (novel preparation (2)) in combination with Paclitaxel was administered to different mouse models. A 9% sucrose solution was administered to the control group.
The lipoplex (novel preparation (2)) was administered intraperitoneally to mouse models in such a manner that 20 μg of TS-shRNA would be administered to each mouse per day, and such administration was carried out four times in total (i.e., 8, 11, 14, and 17 days after the cell transplantation). Paclitaxel was administered intraperitoneally to the relevant group of mouse models four times in total (i.e., 8, 11, 14, and 17 days after the cell transplantation) at 10 mg/kg. […]

[2] = TS-shRNA concentration in ascites and blood by RT-PCR after intraperitoneal lipoplex administration; type: in vivo, BALB/c nu/nu mice; conditions: after i.p. administration of lipoplex (novel preparation (2)), ovarian cancer peritoneal metastasis mouse model

Molecule | increase in luciferase activity (tumor growth in the abdominal cavity) compared with the control group [1] | half-life of TS-shRNA in the ascites [2] | leakage of TS-shRNA into the blood [2]
CC(=O)O[C@H]1C(=O)[C@@]2(C)[C@H]([C@H](OC(=O)c3ccccc3)[C@]3(O)C[C@H](OC(=O)[C@H](O)[C@@H](NC(=O)c4ccccc4)c4ccccc4)C(C)=C1C3(C)C)[C@]1(OC(C)=O)CO[C@@H]1C[C@@H]2O [Paclitaxel] | suppressed; also recorded: strong tumor suppression effects | – | –
TS-shRNA: TS-targeting shRNA, SEQ ID NO: 8, 5′-GUAACACCAUCGAUCAUGAUAGUGCUCCUGGUUGUCAUGAUCGAUGGUGUUACUU-3′ (shRNA hairpin in lipoplex, chemistry not given here) | – | approximately 8 hours | had not leaked

Source: patent US9855345B2, “Method for producing lipoplex for topical administration and antitumor agent using such lipoplex” (DELTA-FLY PHARMA, INC., priority 2014, dated 2018)
